Test results reported in patent US9580430B2, “9H-pyrimido[4,5-B]indoles and related analogs as BET bromodomain inhibitors” (THE REGENTS OF THE UNIVERSITY OF MICHIGAN, priority 2014, dated 2017).
Where two headings read alike, the source gives them in different places. Blank lines part the entries; values can stand above or below the molecule they belong to.

Tests used:
[1] = system: MOLM-13; assay: Cell growth inhibition, MOLM-13 leukemia cells (CellTiter-Glo); type: cell-based; details: Homo sapiens, MOLM-13, 96 h; 4 days; read-out: IC50 (nM) MOLM-13 Cell Line (CellTiter-Glo assay)
Procedure: Cell growth inhibitory activity of representative Compounds of the Disclosure was determined using CellTiter-Glo® Luminescent Cell Viability Assay. […] Cell viability was determined using the CellTiter-Glo® Luminescent Cell Viability Assay Kit (Promega, Madison, Wis.) according to the manufacture's instruction. Briefly, a volume of CellTiter-Glo® Reagent equal to the volume of cell culture medium was added to each well, and then the plates were incubated at room temperature for 10-20 minutes. The luminescent signal was measured using a Tecan Infinite M1000 multimode microplate reader (Tecan, Morrisville, N.C.). The half maximal inhibitory concentration (IC50) was calculated using the GraphPad Prism 5 software (GraphPad Software, La Jolla, Calif.).

[2] = system: MDA-MB-436; assay: Cell growth inhibition, MDA-MB-436 breast cancer cells (WST-8); type: cell-based; details: Homo sapiens, 4 days
Procedure: All the breast cancer cell lines were obtained from the ATCC. Cell viability was determined using the WST-8 (2-(2-methoxy-4-nitrophenyl)-3-(4-nitrophenyl)-5-(2,4-disulfophenyl)-2H-tetrazolium, monosodium salt) based Cell Counting-8 Kit (Dojindo Molecular Technologies, Inc., Rockville, Md.) according to the manufacture's instruction. […] The absorbance was measured at 450 nm using a SPECTRAmax PLUS plate reader (Molecular Devices, Sunnyvale, Calif.). The IC50 was calculated using the GraphPad Prism 5 software.

[3] = molecular target: T1, recombinant BRD4 BD1 (Homo sapiens, UniProt O60885); assay: Competitive fluorescence-polarization (FP) binding assay, BRD4 BD1; details: for Ki: read-out: Binding affinities (FP) BRD4BD1 Ki; as to IC50 (nM) BRD4 BD1: probe 1.5 nM
T1 construct: for recombinant BRD4 BD1 and BRD4 BD2 proteins
Procedure: (§1) Fluorescence Polarization (FP) competitive binding studies were carried out using a FAM labeled fluorescent probe (ZBA248 or BRD-1F) to determine binding affinities of representative Compounds of the Disclosure for recombinant BRD4 BD1 and BRD4 BD2 proteins. For example, equilibrium dissociation constants (Kd) values of ZBA248 to these […] proteins were determined from protein saturation experiments by monitoring the total fluorescence polarization of mixtures composed with the fluorescent probe at a fixed concentration and proteins with increasing concentrations up to full saturation. Serial dilutions of testing protein were mixed with ZBA248 to a final volume of 200 μl in the assay buffer. […] Plates were incubated at room temperature for 30 minutes with gentle shaking to assure equilibrium. […] Kd values of ZBA248 were calculated by fitting the sigmoidal dose-dependent FP increases as a function of protein concentrations using Graphpad Prism 6.0 software (Graphpad Software, San Diego, Calif.).
(§2) The IC50 and Ki values of representative Compounds of the Disclosure were determined in a competitive binding experiment as described above. Mixtures of 10 μl of the tested compounds in assay buffer with 40% Ethylene Glycol and 190 μl of preincubated protein/probe complex solution in the assay buffer (100 mM potassium phosphate, pH 6.5, 0.01% Triton X-100) were added into assay plates which were incubated at room temperature for 30 minutes with gentle shaking. Final concentrations of proteins were 10 and 6 nM in assays for BD1 and BD2 of BRD4, respectively. […] FP values were measured as described above. IC50 values were determined by nonlinear regression fitting of the competition curves.

[4] = molecular target: T2, recombinant BRD4 BD2 (Homo sapiens, UniProt O60885); assay: Competitive fluorescence-polarization (FP) binding assay, BRD4 BD2; details: for Ki: read-out: Binding affinities (FP) BRD4BD2 Ki; as to IC50 (nM) BRD4 BD2: probe 1.5 nM
T2 construct: for recombinant BRD4 BD1 and BRD4 BD2 proteins
Procedure: as §1, §2

[5] = FP competitive binding, BRD4 BD1, read-out: Binding affinities (FP) BRD4BD1 IC50
[6] = FP competitive binding, BRD4 BD1
[7] = 96 h, MDA-MB-436 cells, read-out: Cellular data MDA-MB-436 IC50
[8] = FP competitive binding, BRD4 BD2, read-out: Binding affinities (FP) BRD4BD2 IC50
[9] = FP competitive binding, BRD4 BD2
[10] = competitive FP assay, protein 10 nM, probe […], read-out: IC50 (nM) BRD4 BD1
[11] = competitive FP assay, protein 6 nM, probe […], read-out: IC50 (nM) BRD4 BD2

- IC50 [3, 5]: 102 nM
- Ki [3, 6]: 38 nM
- IC50 [2, 7]: 646 nM
- IC50 [4, 8]: 92 nM
- Ki [4, 9]: 27 nM
SMILES: COc1nc2c(cc1-c1c(C)noc1C)[nH]c1nc(C)nc(N(C)c3c(C)cnn3C(C)C)c12 [compound 319, 7-(3,5-dimethylisoxazol-4-yl)-N-(1-isopropyl-4-methyl-1H-pyrazol-5-yl)-6-methoxy-N,2-dimethyl-9H-pyrido[2′,3′:4,5]pyrrolo[2,3-d] pyrimidin-4-amine]

- IC50 [3, 5]: 35 nM
- Ki [3, 6]: 12 nM
- IC50 [2, 7]: 299 nM
- IC50 [4, 8]: 108 nM
- Ki [4, 9]: 34 nM
SMILES: COc1nc2c(cc1-c1c(C)noc1C)[nH]c1nc(C)nc(N(C)c3nn(C)c4ncccc34)c12 [compound 318, 7-(3,5-dimethylisoxazol-4-yl)-6-methoxy-N,2-dimethyl-N-(1-methyl-1H-pyrazolo[3,4-b]pyridin-3-yl)-9H-pyrido[2′,3′:4,5]pyrrolo[2,3-d] pyrimidin-4-amine]

- IC50 [3, 5]: 10.2 nM
- Ki [3, 6]: 1.8 nM
- IC50 [2, 7]: 85 nM
- IC50 [4, 8]: 7 nM
- Ki [4, 9]: 1.3 nM
SMILES: COc1nc2c(cc1-c1c(C)noc1C)[nH]c1nc(C)nc(N(C)c3cc(C4CC4)nn3C)c12 [compound 320, N-(3-cyclopropyl-1-methyl-1H-pyrazol-5-yl)-7-(3,5-dimethylisoxazol-4-yl)-6-methoxy-N,2-dimethyl-9H-pyrido[2′,3′:4,5]pyrrolo[2,3-d] pyrimidin-4-amine]

- IC50 [3, 5]: 74 nM
- Ki [3, 6]: 27 nM
- IC50 [2, 7]: 1140 nM
- IC50 [4, 8]: 139 nM
- Ki [4, 9]: 44 nM
SMILES: COc1nc2c(cc1-c1c(C)noc1C)[nH]c1nc(C)nc(N(C)c3cccc(C)c3)c12 [compound 317, 7-(3,5-dimethylisoxazol-4-yl)-6-methoxy-N,2-dimethyl-N-(m-tolyl)-9H-pyrido[2′,3′:4,5]pyrrolo[2,3-d] pyrimidin-4-amine]

- IC50 [3, 5]: 317 nM
- Ki [3, 6]: 106 nM
- IC50 [2, 7]: 1020 nM
- IC50 [4, 8]: 311 nM
- Ki [4, 9]: 106 nM
SMILES: COc1nc2c(cc1-c1c(C)noc1C)[nH]c1nc(C)nc(N(C)c3cc(C)nn3C(C)(C)C)c12 [compound 316, N-(1-(tert-butyl)-3-methyl-1H-pyrazol-5-yl)-7-(3,5-dimethylisoxazol-4-yl)-6-methoxy-N,2-dimethyl-9H-pyrido[2′,3′:4,5]pyrrolo [2,3-d]pyrimidin-4-amine]

- IC50 [3, 5]: 482 nM
- Ki [3, 6]: 171 nM
- IC50 [2, 7]: 4430 nM
- IC50 [4, 8]: 796 nM
- Ki [4, 9]: 239 nM
SMILES: COc1nc2c(cc1-c1c(C)noc1C)[nH]c1nc(C)nc(N(C)C3CCCC3)c12 [compound 321, N-cyclopentyl-7-(3,5-dimethylisoxazol-4-yl)-6-methoxy-N,2-dimethyl-9H-pyrido[2′,3′:4,5]pyrrolo[2,3-d] pyrimidin-4-amine]

Second part, the molecule before the results:

SMILES: COc1cc2c(cc1-c1c(C)noc1C)[nH]c1nc(C)nc(Nc3nn(C)c4ccc(F)cc34)c12 [Cpd. No. 127, 7-(3,5-Dimethylisoxazol-4-yl)-N-(5-fluoro-1-methyl-1H-indazol-3-yl)-6-methoxy-2-methyl-9H-pyrimido[4,5-b]indol-4-amine]
- IC50 [1]: 178 nM
- IC50 ([2]; MDA-MB-436, 96 h, read-out: IC50 (nM) MDA-MB-436 Cell Line (WST assay)): 508 nM

SMILES: COc1cc(C)cc(Nc2nc(C)nc3[nH]c4cc(-c5c(C)noc5C)c(OC)cc4c23)c1 [Cpd. No. 218, 7-(3,5-dimethylisoxazol-4-yl)-6-methoxy-N-(3-methoxy-5-methylphenyl)-2-methyl-9H-pyrimido[4,5-b]indol-4-amine]
- IC50 [3, 10]: 17 nM
- IC50 [1]: 9340 nM
- IC50 [4, 11]: 15 nM

SMILES: COc1nc2c(cc1-c1c(C)noc1C)[nH]c1nc(C)nc(Nc3cccc(C)c3)c12 [compound 313, 7-(3,5-dimethylisoxazol-4-yl)-6-methoxy-2-methyl-N-(m-tolyl)-9H-pyrido[2′,3′:4,5]pyrrolo[2,3-d] pyrimidin-4-amine]
- IC50 [3, 5]: 4070 nM
- Ki [3, 6]: 1200 nM
- IC50 [2, 7]: > 2000 nM
- IC50 [4, 8]: 4070 nM
- Ki [4, 9]: 1140 nM

SMILES: COc1nc2c(cc1-c1c(C)noc1C)[nH]c1nc(C)nc(Nc3cc(C)nn3C(C)(C)C)c12 [Cpd. No. 310, N-(1-(tert-butyl)-3-methyl-1H-pyrazol-5-yl)-7-(3,5-dimethylisoxazol-4-yl)-6-methoxy-2-methyl-9H-pyrido[2′,3′:4,5]pyrrolo[2,3-d] pyrimidin-4-amine]
- IC50 [3, 5]: 378 nM
- Ki [3, 6]: 143 nM
- IC50 [2, 7]: 1280 nM
- IC50 [4, 8]: 313 nM
- Ki [4, 9]: 113 nM

SMILES: COc1cc2c(cc1-c1c(C)noc1C)[nH]c1nc(C)nc(Nc3cccc4cccnc34)c12 [Cpd. No. 210, 7-(3,5-dimethylisoxazol-4-yl)-6-methoxy-2-methyl-N-(quinolin-8-yl)-9H-pyrimido[4,5-b]indol-4-amine]
- IC50 [3, 10]: > 1000 nM
- IC50 [1]: 1130 nM
- IC50 [4, 11]: > 1000 nM

SMILES: COc1nc2c(cc1-c1c(C)noc1C)[nH]c1nc(C)nc(Nc3nn(C)c4ncccc34)c12 [compound 311, 7-(3,5-dimethylisoxazol-4-yl)-6-methoxy-2-methyl-N-(1-methyl-1H-pyrazolo[3,4-b]pyridin-3-yl)-9H-pyrido[2′,3′:4,5]pyrrolo [2,3-d]pyrimidin-4-amine]
- IC50 [3, 5]: 1090 nM
- Ki [3, 6]: 602 nM
- IC50 [2, 7]: 1100 nM
- IC50 [4, 8]: > 1000 nM

SMILES: COc1nc2c(cc1-c1c(C)noc1C)[nH]c1nc(C)nc(Nc3cc(C(C)(C)C)nn3C)c12 [compound 314, N-(3-(tert-butyl)-1-methyl-1H-pyrazol-5-yl)-7-(3,5-dimethylisoxazol-4-yl)-6-methoxy-2-methyl-9H-pyrido[2′,3′:4,5]pyrrolo [2,3-d]pyrimidin-4-amine]
- IC50 [3, 5]: 457 nM
- Ki [3, 6]: 146 nM
- IC50 [2, 7]: > 2000 nM
- IC50 [4, 8]: 986 nM
- Ki [4, 9]: 209 nM

SMILES: COc1nc2c(cc1-c1c(C)noc1C)[nH]c1nc(C)nc(Nc3c(C)cnn3C(C)C)c12 [compound 312, 7-(3,5-dimethylisoxazol-4-yl)-N-(1-isopropyl-4-methyl-1H-pyrazol-5-yl)-6-methoxy-2-methyl-9H-pyrido[2′,3′:4,5]pyrrolo[2,3-d] pyrimidin-4-amine]
- IC50 [3, 5]: 378 nM
- Ki [3, 6]: 140 nM
- IC50 [2, 7]: 1060 nM
- IC50 [4, 8]: 346 nM
- Ki [4, 9]: 101 nM

SMILES: COc1nc2c(cc1-c1c(C)noc1C)[nH]c1nc(C)nc(N(C)c3cc(C(C)(C)C)nn3C)c12 [compound 315, N-(3-(tert-butyl)-1-methyl-1H-pyrazol-5-yl)-7-(3,5-dimethylisoxazol-4-yl)-6-methoxy-N,2-dimethyl-9H-pyrido[2′,3′:4,5]pyrrolo[2,3-d] pyrimidin-4-amine]
- IC50 [3, 5]: 28 nM
- Ki [3, 6]: 7.8 nM
- IC50 [2, 7]: 164 nM
- IC50 [4, 8]: 16 nM
- Ki [4, 9]: 4.7 nM

SMILES: COCCn1nc(C2CC2)cc1Nc1nc(C)nc2[nH]c3cc(-c4c(C)noc4C)c(OC)cc3c12 [Cpd. No. 266, N-(3-Cyclopropyl-1-(2-methoxyethyl)-1H-pyrazol-5-yl)-7-(3,5-dimethylisoxazol-4-yl)-6-methoxy-2-methyl-9H-pyrimido[4,5-b]indol-4-amine]
- IC50 [3, 10]: 10.3 nM
- IC50 [4, 11]: 3.1 nM

SMILES: COc1cc2c(cc1-c1c(C)noc1C)[nH]c1nc(C)nc(Oc3cccc(Cl)c3)c12 [Cpd. No. 95, 4-(4-(3-chlorophenoxy)-6-methoxy-2-methyl-9H-pyrimido[4,5-b]indol-7-yl)-3,5-dimethylisoxazole]
- IC50 [3, 10]: > 1000 nM
- IC50 [4, 11]: > 1000 nM

SMILES: COc1cc2c(cc1-c1c(C)noc1C)[nH]c1nc(C)nc(Oc3cccnc3)c12 [Cpd. No. 96, 4-(6-methoxy-2-methyl-4-(pyridin-3-yloxy)-9H-pyrimido[4,5-b]indol-7-yl)-3,5-dimethylisoxazole]
- IC50 [3, 10]: 864 nM
- IC50 [4, 11]: 379 nM
